According to ChEMBL document CHEMBL4270538, “Targeting prohibitin with small molecules to promote melanogenesis and apoptosis in melanoma cells” (Eur J Med Chem, 2018):

Experiments:
[1] = target: Prohibitin-2 (Homo sapiens) (UniProt Q99623); experiment: Induction of PHB2-mediated melanogenesis in human HBL cells assessed as pigmentation at 1 uM after 10 days relative to control; assay type: cell-based
[2] = target: Prohibitin-2 (Homo sapiens) (UniProt Q99623); experiment: Induction of PHB2-mediated melanogenesis in human HBL cells assessed as pigmentation at 10 uM after 10 days relative to control; assay type: cell-based

Chain of Prohibitin-2 (Homo sapiens) (Q99623 whole entry): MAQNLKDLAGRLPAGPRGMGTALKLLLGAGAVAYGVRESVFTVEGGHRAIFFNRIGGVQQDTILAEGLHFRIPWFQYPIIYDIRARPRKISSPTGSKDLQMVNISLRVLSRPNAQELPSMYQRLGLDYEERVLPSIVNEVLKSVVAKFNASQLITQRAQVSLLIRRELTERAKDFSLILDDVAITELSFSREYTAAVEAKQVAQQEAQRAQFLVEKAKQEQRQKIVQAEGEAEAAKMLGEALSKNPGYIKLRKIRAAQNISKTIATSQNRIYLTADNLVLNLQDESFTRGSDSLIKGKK

Compound: CC[C@H](CO)Nc1nc(Oc2c(F)c(F)c(F)c(F)c2F)nc(N(C)Cc2cccc(F)c2)n1
- fold change (FC) [1]: 0.77
- fold change (FC) [2]: 0.81

Compound: CNc1nc(Oc2c(F)c(F)c(F)c(F)c2F)nc(N(C)[C@@H](C)c2ccccc2)n1
- fold change (FC) [1]: 1.01
- fold change (FC) [2]: 0.86

Compound: CC(Nc1nc(NCCN(C)C)nc(Oc2c(F)c(F)c(F)c(F)c2F)n1)c1cccc(F)c1 (stereo not drawn)
- fold change (FC) [1]: 0.77
- fold change (FC) [2]: 0.43

Compound: Fc1cccc(CNc2nc(Oc3c(F)c(F)c(F)c(F)c3F)nc(N3CCCC3)n2)c1
- fold change (FC) [1]: 0.99
- fold change (FC) [2]: 1.08

Compound: C[C@H](c1ccccc1)N(C)c1nc(NCCN(C)C)nc(Oc2c(F)c(F)c(F)c(F)c2F)n1
- fold change (FC) [1]: 1.25
- fold change (FC) [2]: 1.53

Compound: CNc1nc(N[C@H](C)c2ccccc2)nc(Oc2c(F)c(F)c(F)c(F)c2F)n1
- fold change (FC) [1]: 1.16
- fold change (FC) [2]: 0.89

Compound: C[C@@H](c1ccccc1)N(C)c1nc(NCCN(C)C)nc(Oc2c(F)c(F)c(F)c(F)c2F)n1
- fold change (FC) [1]: 0.94
- fold change (FC) [2]: 0.71

Compound: CNc1nc(Oc2c(F)c(F)c(F)c(F)c2F)nc(N(C)Cc2cccc(F)c2)n1
- fold change (FC) [1]: 0.84
- fold change (FC) [2]: 0.78

Compound: CN(C)c1nc(NCc2cccc(F)c2)nc(Oc2c(F)c(F)c(F)c(F)c2F)n1
- fold change (FC) [1]: 1.04
- fold change (FC) [2]: 1.05

Compound: CC[C@H](CO)Nc1nc(NC(C)c2cccc(F)c2)nc(Oc2c(F)c(F)c(F)c(F)c2F)n1 (stereo partly drawn)
- fold change (FC) [1]: 0.78
- fold change (FC) [2]: 0.68

Compound: CCC(Nc1nc(N[C@H](CC)CO)nc(Oc2c(F)c(F)c(F)c(F)c2F)n1)c1cccc(F)c1 (stereo partly drawn)
- fold change (FC) [1]: 0.95
- fold change (FC) [2]: 0.74

Compound: CN(C)CCNc1nc(Oc2c(F)c(F)c(F)c(F)c2F)nc(N(C)Cc2ccccc2)n1
- fold change (FC) [1]: 0.98
- fold change (FC) [2]: 0.99

Compound: Fc1cccc(CNc2nc(NCc3ccccn3)nc(Oc3c(F)c(F)c(F)c(F)c3F)n2)c1
- fold change (FC) [1]: 1.02
- fold change (FC) [2]: 1.01

Compound: CN1CCN(c2nc(NCc3cccc(F)c3)nc(Oc3c(F)c(F)c(F)c(F)c3F)n2)CC1
- fold change (FC) [1]: 0.78
- fold change (FC) [2]: 0.65

Compound: Fc1cccc(CNc2nc(NCCc3cc4ccccc4[nH]3)nc(Oc3c(F)c(F)c(F)c(F)c3F)n2)c1
- fold change (FC) [1]: 1.09
- fold change (FC) [2]: 1.25

Compound: Nc1nc(NCc2cccc(F)c2)nc(Oc2c(F)c(F)c(F)c(F)c2F)n1
- fold change (FC) [1]: 0.92
- fold change (FC) [2]: 0.91

Compound: Fc1cccc(CNc2nc(NCC3CCCO3)nc(Oc3c(F)c(F)c(F)c(F)c3F)n2)c1 (stereo not drawn)
- fold change (FC) [1]: 1.07
- fold change (FC) [2]: 0.95

Compound: O=C1CCCN1CCCNc1nc(NCc2cccc(F)c2)nc(Oc2c(F)c(F)c(F)c(F)c2F)n1
- fold change (FC) [1]: 0.99
- fold change (FC) [2]: 1.04

Compound: Fc1cccc(CNc2nc(NCc3cccnc3)nc(Oc3c(F)c(F)c(F)c(F)c3F)n2)c1
- fold change (FC) [1]: 0.92
- fold change (FC) [2]: 0.94

Compound: CNc1nc(NC(C)c2cccc(F)c2)nc(Oc2c(F)c(F)c(F)c(F)c2F)n1 (stereo not drawn)
- fold change (FC) [1]: 1.01
- fold change (FC) [2]: 0.84

Compound: CC(=O)NCCNc1nc(NCc2cccc(F)c2)nc(Oc2c(F)c(F)c(F)c(F)c2F)n1
- fold change (FC) [1]: 0.91
- fold change (FC) [2]: 1

Compound: CNc1nc(NCc2cccc(F)c2)nc(Oc2c(F)c(F)c(F)c(F)c2F)n1
- fold change (FC) [1]: 0.89
- fold change (FC) [2]: 0.84

Compound: CC[C@H](CO)Nc1nc(N[C@H](C)c2ccccc2)nc(Oc2c(F)c(F)c(F)c(F)c2F)n1
- fold change (FC) [1]: 0.94
- fold change (FC) [2]: 0.83

Compound: FC1(F)N=C(c2ccc(Cl)cc2)SC1(F)c1ccc(Cl)cc1 (stereo not drawn)
- fold change (FC) [1]: 1.51
- fold change (FC) [2]: 1.37

Compound: Fc1cccc(CNc2nc(NCCCCc3ccccc3)nc(Oc3c(F)c(F)c(F)c(F)c3F)n2)c1
- fold change (FC) [1]: 0.9
- fold change (FC) [2]: 1

Compound: CCC(Nc1nc(NCCN(C)C)nc(Oc2c(F)c(F)c(F)c(F)c2F)n1)c1cccc(F)c1 (stereo not drawn)
- fold change (FC) [1]: 0.86
- fold change (FC) [2]: 0.55

Compound: CN(C)CCNc1nc(NCc2cccc(F)c2)nc(Oc2c(F)c(F)c(F)c(F)c2F)n1
- fold change (FC) [1]: 0.98
- fold change (FC) [2]: 0.59

Compound: Fc1cccc(CNc2nc(Oc3c(F)c(F)c(F)c(F)c3F)nc(N3CCOCC3)n2)c1
- fold change (FC) [1]: 0.85
- fold change (FC) [2]: 0.93

Compound: CNc1nc(Oc2c(F)c(F)c(F)c(F)c2F)nc(N2CCCc3ccccc3C2)n1
- fold change (FC) [1]: 0.8
- fold change (FC) [2]: 0.86

Compound: Fc1cccc(CNc2nc(NCCCc3ccccc3)nc(Oc3c(F)c(F)c(F)c(F)c3F)n2)c1
- fold change (FC) [1]: 1.07
- fold change (FC) [2]: 1.07

Compound: CNc1nc(Oc2c(F)c(F)c(F)c(F)c2F)nc(N2CCc3ccccc3C2)n1
- fold change (FC) [1]: 0.84
- fold change (FC) [2]: 0.87

Compound: COCCNc1nc(NCc2cccc(F)c2)nc(Oc2c(F)c(F)c(F)c(F)c2F)n1
- fold change (FC) [1]: 0.8
- fold change (FC) [2]: 0.76

Compound: Fc1cccc(CNc2nc(NCc3ccccc3)nc(Oc3c(F)c(F)c(F)c(F)c3F)n2)c1
- fold change (FC) [1]: 0.89
- fold change (FC) [2]: 1.1

Compound: CC(C)CCNc1nc(NCc2cccc(F)c2)nc(Oc2c(F)c(F)c(F)c(F)c2F)n1
- fold change (FC) [1]: 0.7
- fold change (FC) [2]: 0.89

Compound: CN(C)CCNc1nc(Oc2c(F)c(F)c(F)c(F)c2F)nc(N(C)Cc2cccc(F)c2)n1
- fold change (FC) [1]: 1.15
- fold change (FC) [2]: 1.97

Compound: CCN(Cc1ccccc1)c1nc(NCCN(C)C)nc(Oc2c(F)c(F)c(F)c(F)c2F)n1
- fold change (FC) [1]: 1.11
- fold change (FC) [2]: 1.43

Compound: CC[C@H](CO)Nc1nc(Oc2c(F)c(F)c(F)c(F)c2F)nc(N(C)[C@@H](C)c2ccccc2)n1
- fold change (FC) [1]: 0.96
- fold change (FC) [2]: 0.89

Compound: Fc1cccc(CNc2nc(NCCc3ccccc3)nc(Oc3c(F)c(F)c(F)c(F)c3F)n2)c1
- fold change (FC) [1]: 0.9
- fold change (FC) [2]: 1.11

Compound: CC[C@H](CO)Nc1nc(Oc2c(F)c(F)c(F)c(F)c2F)nc(N2CCCc3ccccc3C2)n1
- fold change (FC) [1]: 0.85
- fold change (FC) [2]: 0.74

Compound: C[C@@H](Nc1nc(NCCN(C)C)nc(Oc2c(F)c(F)c(F)c(F)c2F)n1)c1ccccc1
- fold change (FC) [1]: 0.78
- fold change (FC) [2]: 0.61

Compound: Fc1cccc(CNc2nc(NCCNc3ccccn3)nc(Oc3c(F)c(F)c(F)c(F)c3F)n2)c1
- fold change (FC) [1]: 0.97
- fold change (FC) [2]: 1.09

Compound: CN(C)CCCNc1nc(Oc2c(F)c(F)c(F)c(F)c2F)nc(N2CCCc3ccccc3C2)n1
- fold change (FC) [1]: 0.96
- fold change (FC) [2]: 1.57

Compound: OCC1CCN(c2nc(NCc3cccc(F)c3)nc(Oc3c(F)c(F)c(F)c(F)c3F)n2)CC1
- fold change (FC) [1]: 0.89
- fold change (FC) [2]: 0.84

Compound: CNc1nc(Oc2c(F)c(F)c(F)c(F)c2F)nc(N2Cc3ccccc3C2)n1
- fold change (FC) [1]: 0.93
- fold change (FC) [2]: 0.98

Compound: Fc1cccc(CNc2nc(NCc3ccncc3)nc(Oc3c(F)c(F)c(F)c(F)c3F)n2)c1
- fold change (FC) [1]: 0.77
- fold change (FC) [2]: 0.76

Compound: CNc1nc(Oc2c(F)c(F)c(F)c(F)c2F)nc(N(C)[C@H](C)c2ccccc2)n1
- fold change (FC) [1]: 0.88
- fold change (FC) [2]: 0.94

Compound: CCC(CO)Nc1nc(NCc2cccc(F)c2)nc(Oc2c(F)c(F)c(F)c(F)c2F)n1 (stereo not drawn)
- fold change (FC) [1]: 1.06
- fold change (FC) [2]: 1.39

Compound: CC[C@@H](CO)Nc1nc(NCc2cccc(F)c2)nc(Oc2c(F)c(F)c(F)c(F)c2F)n1
- fold change (FC) [1]: 0.8
- fold change (FC) [2]: 0.61

Compound: CNc1nc(NCc2ccccc2)nc(Oc2c(F)c(F)c(F)c(F)c2F)n1
- fold change (FC) [1]: 0.9
- fold change (FC) [2]: 0.69
